Experimental data taken from US20190119504A1 (Dow Global Technologies LLC, priority 2016, published 2019).

Columns and labels:
Chlorella sp. ATCC 7516 = test: Algal efficacy testing of dry paint film, modified ASTM 5589; format: cell-based
Procedure: (§1) These paints were then diluted with a biocide free acrylic/silicone based paint and mixed to prepare targeted concentrations of biocide combinations for the testing. The total biocides concentrations obtained were 125, 250, 500, 1000, 2000 and 5000 ppm. After biocides addition or dilution, the paints were mixed 90 seconds with the horse power shaker (AXEL 75M3372/Agitateur SO-10MI) until uniformity was achieved. […] After one day, the paints were applied to Schleicher & Schuell filter paper at 280 μm wet film thickness and dried for 3 days at room temperature avoiding direct exposure to sunlight. […] This sample size allowed for an agar border when the sample disc was placed into the well of the test plate.
Algal efficacy was tested according to modified ASTM 5589 which is a standard accelerated test method for determining resistance of various coatings (including paints) to algal defacement. To accommodate for high-throughput screening, this method was scaled down from petri plates to 6-well plates. Bold Modified Basal Freshwater Nutrient Solution was used as growth medium for the algal culture and Bold's agar was used for the efficacy testing. A single coupon was placed with a pair of sterile forceps at the center of the agar plug (on top) with the painted surface facing upwards. The algal inoculum was prepared by diluting an exponentially growing culture of Chlorella sp. to 1×10^6 cfu/ml.
Each well that contains a tested coupon was inoculated with 1750 μl of algal suspension (1×10^6 cfu/ml) making sure that the whole surface (paint film as well as the agar surrounding it) was evenly covered. The plates were incubated at room temp (21° C.-25° C.) with cyclic exposure to 14 hours fluorescent light followed by 10 hours darkness, for a period of three weeks.
(§2) The SI is calculated based on F. C. Kull et.
SI=Qa/QA+Qb/QB • Qa=the concentration of Antimicrobial A in the blend • QA=the concentration of Antimicrobial A as the only biocide • Qb=the concentration of Antimicrobial B in the blend • QB=the concentration of Antimicrobial B as the only antimicrobial […]

[1] = system: Aspergillus niger DSMZ 1957; test: Fungal efficacy testing of dry paint film, modified ASTM 5590; format: cell-based; conditions: A. niger 1957, three weeks
Procedure: as §1
ASTM 5590 is a standard accelerated test method for determining resistance of various coatings (including paints) to fungal defacement. To accommodate for high-throughput screening, this method was scaled down from petri plates to 6-well plates. […] A single coupon was placed with a pair of sterile forceps at the center of the agar plug (on top) with the painted surface facing upwards.
as §2
SI=Qa/QA+Qb/QB • Qa=the concentration of Antimicrobial A in the blend • QA=the concentration of Antimicrobial A as the only biocide • Qb=the concentration of Antimicrobial B in the blend • QB=the concentration of Antimicrobial B as the only antimicrobial
SI value of <1 in the formula indicates a synergism of the blended biocides exists.

Cc1ccc(S(=O)(=O)C(I)I)cc1 [DIMTS, Diiodomethyl p-tolyl sulfone]
inhibition at 5000 ppm (Chlorella sp. ATCC 7516; 504 h, total conc 5000 ppm, three weeks, color intensity vs blank): 95% | Total conc, ppm (concentration used as minimum inhibitory concentration for SI; pass level 75% inhibition) (Chlorella sp. ATCC 7516; total active ingredient in liquid paint, dry film, three weeks): 5000 ppm | Total conc, ppm (concentration used as minimum inhibitory concentration for SI; pass level 75% inhibition; where pass not reached, concentration tested) ([1]; total active ingredient in liquid paint, dry film): 2000 ppm | inhibition at 2000 ppm ([1]; Aspergillus niger, DSMZ1957, 504 h, total conc 2000 ppm, area covered, increments of 5%): 95%

O=c1[nH]c2c(c(=O)n1C1CCCCC1)CCC2 [LENACIL, 3-Cyclohexyl-6,7-dihydro-1H-cyclopentapyrimidine-2,4-(3H,5H)-dione]
inhibition at 1000 ppm (Chlorella sp. ATCC 7516; 504 h): 90% | inhibition at 10000 ppm ([1]; Aspergillus niger, DSMZ1957, 504 h, total conc 10000 ppm, area covered, increments of 5%): 0%
